Source: KR20210056931A, “피리메타민을 유효성분으로 포함하는 면역 관련 질환의 치료 또는 예방용 약학 조성물” (priority 2019, dated 2021)
Values joined by “and” are separate entries in the source; they are usually repeats but may differ in a detail not shown here. Identical values can stand only once.

How the values were obtained:
[1] = test system: rheumatoid arthritis model, DBA-1J Mice [류마티스 관절염 모델]; test: Arthritis score in rheumatoid arthritis animal model, dose regimen study, Experiment 6; format: in vivo, mouse; conditions: HCQ 80 mg/kg/day QD PO, PG 25 mg/kg/day QD PO; for Arthritis score: MTX 2 mg/kg/2day PO, TFC 10 mg/kg/day BID PO (G3-G6); for Arthritis score (in words): TFC 10 mg/kg/day BID PO
TNF-α [2] = test: TNF-α expression inhibition in Raw264.7, comparison with tofacitinib, Experiment 2-2; format: cell-based; conditions: 6 h pretreatment, LPS 10 ng/mL 16 h
[3] = test system: rheumatoid arthritis model, DBA-1J Mice [류마티스 관절염 모델]; test: Histopathological examination in rheumatoid arthritis animal model, dose regimen study, Experiment 6; format: in vivo, mouse; conditions: Day 14; MTX 2 mg/kg/2day PO, HCQ 80 mg/kg/day QD PO, PG 25 mg/kg/day QD PO, TFC 10 mg/kg/day BID PO (G3-G6)
TNF-α [4] = test: Plasma TNF-α (ELISA), Experiment 6-5; format: in vivo, mouse; conditions: for Plasma TNF-α: Day 14, MTX 2 mg/kg/2day PO, HCQ 80 mg/kg/day QD PO, PG 25 mg/kg/day QD PO, TFC 10 mg/kg/day BID PO (G3-G6); for Plasma TNF-α (in words): HCQ, PG, TFC groups
[5] = test system: rheumatoid arthritis model, DBA-1J Mice [류마티스 관절염 모델]; test: Paw edema in rheumatoid arthritis animal model, dose regimen study, Experiment 6; format: in vivo, mouse; conditions: Day 14, MTX 2 mg/kg/2day PO, HCQ 80 mg/kg/day QD PO, PG 25 mg/kg/day QD PO, TFC 10 mg/kg/day BID PO (G3-G6)
TNF-α [6] = test: TNF-α expression inhibition in Raw264.7, comparison with hydroxychloroquine and proguanil, Experiment 2-3; format: cell-based; conditions: for TNF-α expression: PY 0.2 uM, HCQ 0.61 uM, PG 5 uM, LPS 10 ng/mL, 24 h co-treatment
TNF-α [7] = test: TNF-α expression inhibition in Raw264.7, comparison with DMARDs, Experiment 2-1; format: cell-based; conditions: 6 h pretreatment, LPS 10 ng/mL, MTX 344 nM, HCQ 610 nM, PYR 50 ng/mL, CsA 391 ng/mL, AZA 25 ng/mL, SFZ 750 ng/mL
STAT3 = STAT3 activity (nuclear translocation) in Raw264.7, Experiment 3; format: cell-based; conditions: 50 ng/ml, 2 h pretreatment; LPS 100 ng/ml 16 h; Fig. 6

Structure (SMILES)	Arthritis score ([1]; Day 0)	Arthritis score ([1]; Day 2)	Arthritis score ([1]; Day 5)	Arthritis score ([1]; Day 7)	Arthritis score ([1]; Day 9)	Arthritis score ([1]; Day 12)	Arthritis score ([1]; Day 14)	Arthritis score (in words) [1]	Bone destruction [3]	Cartilage damage [3]	Histopathological examination, total [3]	Synovium proliferation [3]	Plasma TNF-α (TNF-α [4])	Plasma TNF-α (in words) (TNF-α [4])	Paw edema, HL, mean [5]	Paw edema, HR, mean [5]	TNF-α expression (TNF-α [6])	further results
C[C@@H]1CCN(C(=O)CC#N)C[C@@H]1N(C)c1ncnc2[nH]ccc12 [토파시티닙]	2.5±1.0 total score	4.5±1.4 total score	6.5±2.5 total score	8.7±2.3 total score	9.0±2.5 total score	10.3±2.6 total score	11.3±3.3 total score	관절염 지수가 개선되지 않았다	2.5±0.5	1.8±0.4	7.3±0.8	3.0±0.0	885.8 pg/mL	혈장 TNF-α가 감소하지 않은	0.15 mL	0.16 mL	–	TNF-α expression (TNF-α [2]; TFN 100 nM): 535.7 pg/mL; TNF-α expression (TNF-α [2]; TFN 200 nM): 538.5 pg/mL; Paw edema, HL, individual animal ([5]; listed as TFC): 0.13 mL and 0.12 mL and 0.18 mL and 0.14 mL and 0.17 mL; Paw edema, HR, individual animal ([5]; listed as TFC): 0.19 mL and 0.18 mL and 0.13 mL and 0.14 mL and 0.12 mL
[H]/N=C(\N/C(=N/[H])Nc1ccc(Cl)cc1)NC(C)C [프로구아닐]	2.5±1.0 total score	4.5±1.0 total score	6.7±1.2 total score	8.3±1.5 total score	9.5±2.2 total score	10.2±1.6 total score	11.2±1.2 total score	관절염 지수가 개선되지 않았다	2.7±0.8	2.3±0.8	7.8±1.9	2.8±0.4	904.4 pg/mL	혈장 TNF-α가 감소하지 않은	0.15 mL	0.16 mL	988.1	TNF-α expression inhibition (TNF-α [6]; drug treatment 2 h or 24 h, pyrimethamine 0.2 μM, proguanil 5 μM): TNF-α의 발현량을 억제하지 못했고; Paw edema, HL, individual animal ([5]; listed as PG): 0.13 mL and 0.14 mL and 0.16 mL and 0.15 mL and 0.17 mL and 0.12 mL; Paw edema, HR, individual animal ([5]; listed as PG): 0.16 mL and 0.19 mL and 0.14 mL and 0.13 mL
CCN(CCO)CCCC(C)Nc1ccnc2cc(Cl)ccc12 (centres unmarked) [히드록시클로로퀸, Hydroxychloroquine]	2.5±1.2 total score	4.0±0.6 total score	6.5±0.8 total score	9.3±2.0 total score	10.3±2.1 total score	11.3±2.5 total score	12.0±2.8 total score	관절염 지수가 개선되지 않았다	2.7±0.5	2.0±1.1	7.7±1.5	3.0±0.0	839.5 pg/mL	혈장 TNF-α가 감소하지 않은	0.17 mL	0.16 mL	762.2	TNF-α expression (TNF-α [7]; 2hr): 339.5 pg/mL; TNF-α expression (TNF-α [7]; 24hr): 3564.6 pg/mL; STAT3 nuclear translocation (STAT3): LPS 16 시간 자극에 의한 STAT3의 핵이동을 억제함; Paw edema, HL, individual animal ([5]; listed as HCQ): 0.17 mL and 0.13 mL and 0.19 mL and 0.15 mL and 0.16 mL; Paw edema, HR, individual animal ([5]; listed as HCQ): 0.19 mL and 0.15 mL and 0.13 mL and 0.16 mL and 0.18 mL and 0.14 mL
